# Tested on: central and endosteal BM LSK and LSKSLAM cells
# Assay: In vitro R-BC154 binding to murine bone marrow cells
# Format: cell-based, mouse
# Description: For lineage analysis, cells were stained separately for T-cells using anti-CD3, B-cells using anti-B220, macrophages using anti-Mac-1 and granulocytes using anti-Gr-1. Alternatively, lineage analysis was also performed using a cocktail containing anti-CD3/B220 (PB conjugated) and anti-B220/Gr1/Mac-1 (AF647 conjugated), whereby B220^+ cells were identified as +/+ cells, CD^3+ cells are +/− and Gr1/Mac-1^+ cells are −/+ populations. For analysis of human WBC from cord blood MNCs or BM and PB from humanised NSG mice, cells were immunolabelled with a lineage cocktail containing anti-huCD3/CD14/CD15 (all AF488 conjugated), anti-CD14/CD15/CD19/CD20 (all AF647 conjugated), anti-huCD45-PB, anti-muCD45-BV510 and anti-huCD34-PECy7. A full list of conjugated antibodies used is detailed in Table 1 and 2.
# Populations of endosteal and central murine bone marrow cells were isolated as previously described in J. Grassinger, et al Cytokine, 2012, 58, 218-225 and D. N. Haylock et al Stem Cells, 2007, 25, 1062-1069. Briefly, one femur, tibia and iliac bone were excised and cleaned of muscle. After removing the epi- and metaphyseal regions, bones were flushed with PBS-2% FBS to obtain central bone marrow cells. Flushed long bones and epi- and metaphyseal fragments were pooled and crushed using a mortar and pestle. Bone fragments were digested with Collagenase I (3 mg/ml) and Dispase II (4 mg/ml) at 37° C. in an orbital shaker at 750 rpm. After 5 min, bone fragments were washed once with PBS and once with PBS 2% FBS to collect the endosteal bone marrow cells. Peripheral blood was collected by retro-orbital puncture and red blood cells were lysed using NH4Cl lysis buffer for 5 min at room temperature. Isolated cell populations were washed with PBS 2% FBS and then stained for flow cytometry as described in Antibody Cocktails above.
# Cells were washed with cold PBS (2% F BS) and then immunolabelled as described in “Antibody Cocktails” prior to flow cytometric analysis.
smiles,measurement,setting,value
CCN(CC)c1ccc2c(-c3ccc(S(=O)(=O)NCc4cn(C5CC(C(=O)NC(Cc6ccc(OC(=O)N7CCCC7)cc6)C(=O)O)N(S(=O)(=O)c6ccccc6)C5)nn4)cc3S(=O)(=O)[O-])c3ccc(=[N+](CC)CC)cc-3oc2c1 (centres unmarked) [R-BC154],binding to central versus endosteal LSK and LSKSLAM,1 mM Ca2+/Mg2+,greater binding to central LSK and LSKSLAM
same,binding to HSC and progenitors on co-treatment with EDTA,10 mM EDTA (deactivating),completely abolished activity
same,binding to α4−/−/α9−/− LSK and LSKSLAM cells,BM cells of α4flox/flox α9flox/flox vav-cre mice,essentially absent
same,binding to lineage committed lymphoid and myeloid progeny relative to LSKSLAM and LSK,"exogenous activation, central and endosteal BM",significantly lower
same,binding to LSK cells in the absence of activating cations and EDTA,"no cations, no EDTA",binding to endosteal LSK cells was still evident but not to central LSK
